Test results from PubChem BioAssay (NCI).
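Cultured in 96-well plates, cells were exposed to test compound for 48 hours across five concentrations. GI50 = concentration required for 50% inhibition of growth. TGI denotes the concentration required for complete inhibition of growth.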

Tests used:
Assay in all cases: NCI anticancer screen, dose series, 48 h
786-0 renal = test system: 786-0 renal
A498 renal = test system: A498 renal
A549 NSCLC = test system: A549 NSCLC
ACHN renal = test system: ACHN renal
CAKI-1 renal = test system: CAKI-1 renal
CCRF-CEM leukemia = test system: CCRF-CEM leukemia
COLO 205 colon = test system: COLO 205 colon
DLD-1 colon = test system: DLD-1 colon
DMS 114 small cell lung = test system: DMS 114 small cell lung
EKVX NSCLC = test system: EKVX NSCLC
HCC-2998 colon = test system: HCC-2998 colon
HCT-116 colon = test system: HCT-116 colon
HCT-15 colon = test system: HCT-15 colon
HL-60(TB) leukemia = test system: HL-60(TB) leukemia
HOP-18 NSCLC = test system: HOP-18 NSCLC
HOP-62 NSCLC = test system: HOP-62 NSCLC
HOP-92 NSCLC = test system: HOP-92 NSCLC
HT29 colon = test system: HT29 colon
IGROV1 ovarian = test system: IGROV1 ovarian
K-562 leukemia = test system: K-562 leukemia
KM12 colon = test system: KM12 colon
KM20L2 colon = test system: KM20L2 colon
LOX IMVI melanoma = test system: LOX IMVI melanoma
LXFL 529 NSCLC = test system: LXFL 529 NSCLC
M14 melanoma = test system: M14 melanoma
M19-MEL melanoma = test system: M19-MEL melanoma
MALME-3M melanoma = test system: MALME-3M melanoma
MOLT-4 leukemia = test system: MOLT-4 leukemia
NCI-H23 lung = test system: NCI-H23 lung
NCI-H460 lung = test system: NCI-H460 lung
NCI-H522 lung = test system: NCI-H522 lung
OVCAR-4 ovarian = test system: OVCAR-4 ovarian
OVCAR-5 ovarian = test system: OVCAR-5 ovarian
OVCAR-8 ovarian = test system: OVCAR-8 ovarian
RPMI-8226 leukemia = test system: RPMI-8226 leukemia
RXF 393 renal = test system: RXF 393 renal
RXF-631 renal = test system: RXF-631 renal
SF-268 CNS = test system: SF-268 CNS
SF-295 CNS = test system: SF-295 CNS
SF-539 CNS = test system: SF-539 CNS
SK-MEL-2 melanoma = test system: SK-MEL-2 melanoma
SK-MEL-28 melanoma = test system: SK-MEL-28 melanoma
SK-MEL-5 melanoma = test system: SK-MEL-5 melanoma
SK-OV-3 ovarian = test system: SK-OV-3 ovarian
SN12C renal = test system: SN12C renal
SNB-19 CNS = test system: SNB-19 CNS
SNB-75 CNS = test system: SNB-75 CNS
SNB-78 CNS = test system: SNB-78 CNS
SR leukemia = test system: SR leukemia
SW-620 colon = test system: SW-620 colon
TK-10 renal = test system: TK-10 renal
U251 CNS = test system: U251 CNS
UACC-257 melanoma = test system: UACC-257 melanoma
UACC-62 melanoma = test system: UACC-62 melanoma
UO-31 renal = test system: UO-31 renal
XF 498 CNS = test system: XF 498 CNS
DMS 273 small cell lung = test system: DMS 273 small cell lung
OVCAR-3 ovarian = test system: OVCAR-3 ovarian

For `C=CCONC(=O)c1ccc(Cl)cc1`, which TGI (786-0 renal) is on record?
Its TGI is over 100 µM.

And the TGI (A498 renal)?
Its TGI is over 100 µM.

What about the TGI (A549 NSCLC) of the same compound?
Its TGI is over 100 µM.

And the TGI (ACHN renal)?
Its TGI is over 100 µM.

And the TGI (CAKI-1 renal)?
The TGI was over 100 µM.

What about the TGI (CCRF-CEM leukemia) of the same compound?
The TGI was over 100 µM.

What about the TGI (COLO 205 colon) of the same compound?
Its TGI is over 100 µM.

What about the TGI (DLD-1 colon) of the same compound?
Its TGI is over 100 µM.

And the TGI (DMS 114 small cell lung)?
The TGI was over 100 µM.

And the TGI (EKVX NSCLC)?
The TGI was over 100 µM.

And the TGI (HCC-2998 colon)?
Its TGI is over 100 µM.

What about the TGI (HCT-116 colon) of the same compound?
Its TGI is over 100 µM.

And the TGI (HCT-15 colon)?
Its TGI is over 100 µM.

And the TGI (HL-60(TB) leukemia)?
The TGI was over 100 µM.

And the TGI (HOP-18 NSCLC)?
Its TGI is over 100 µM.

And the TGI (HOP-62 NSCLC)?
Its TGI is over 100 µM.

What about the TGI (HOP-92 NSCLC) of the same compound?
The TGI was over 100 µM.

What about the TGI (HT29 colon) of the same compound?
Its TGI is over 100 µM.

What about the TGI (IGROV1 ovarian) of the same compound?
The TGI was over 100 µM.

What about the TGI (K-562 leukemia) of the same compound?
Its TGI is over 100 µM.

And the TGI (KM12 colon)?
Its TGI is over 100 µM.

What about the TGI (KM20L2 colon) of the same compound?
The TGI was over 100 µM.

What about the TGI (LOX IMVI melanoma) of the same compound?
The TGI was over 100 µM.

What about the TGI (LXFL 529 NSCLC) of the same compound?
The TGI was over 100 µM.

What about the TGI (M14 melanoma) of the same compound?
Its TGI is over 100 µM.

What about the TGI (M19-MEL melanoma) of the same compound?
The TGI was over 100 µM.

What about the TGI (MALME-3M melanoma) of the same compound?
Its TGI is over 100 µM.

What about the TGI (MOLT-4 leukemia) of the same compound?
The TGI was over 100 µM.

What about the TGI (NCI-H23 lung) of the same compound?
The TGI was over 100 µM.

And the TGI (NCI-H460 lung)?
The TGI was over 100 µM.

And the TGI (NCI-H522 lung)?
Its TGI is over 100 µM.

And the TGI (OVCAR-4 ovarian)?
The TGI was over 100 µM.

And the TGI (OVCAR-5 ovarian)?
Its TGI is over 100 µM.

And the TGI (OVCAR-8 ovarian)?
Its TGI is over 100 µM.

And the TGI (RPMI-8226 leukemia)?
The TGI was over 100 µM.

What about the TGI (RXF 393 renal) of the same compound?
The TGI was over 100 µM.

What about the TGI (RXF-631 renal) of the same compound?
Its TGI is over 100 µM.

And the TGI (SF-268 CNS)?
The TGI was over 100 µM.

And the TGI (SF-295 CNS)?
Its TGI is over 100 µM.

What about the TGI (SF-539 CNS) of the same compound?
The TGI was over 100 µM.

What about the TGI (SK-MEL-2 melanoma) of the same compound?
The TGI was over 100 µM.

And the TGI (SK-MEL-28 melanoma)?
Its TGI is over 100 µM.

What about the TGI (SK-MEL-5 melanoma) of the same compound?
The TGI was over 100 µM.

What about the TGI (SK-OV-3 ovarian) of the same compound?
Its TGI is over 100 µM.

And the TGI (SN12C renal)?
Its TGI is over 100 µM.

And the TGI (SNB-19 CNS)?
Its TGI is over 100 µM.

And the TGI (SNB-75 CNS)?
The TGI was over 100 µM.

What about the TGI (SNB-78 CNS) of the same compound?
The TGI was over 100 µM.

And the TGI (SR leukemia)?
The TGI was over 100 µM.

And the TGI (SW-620 colon)?
Its TGI is over 100 µM.

What about the TGI (TK-10 renal) of the same compound?
Its TGI is over 100 µM.

And the TGI (U251 CNS)?
The TGI was over 100 µM.

What about the TGI (UACC-257 melanoma) of the same compound?
Its TGI is over 100 µM.

What about the TGI (UACC-62 melanoma) of the same compound?
The TGI was over 100 µM.

And the TGI (UO-31 renal)?
The TGI was over 100 µM.

What about the TGI (XF 498 CNS) of the same compound?
Its TGI is over 100 µM.

What does the source list for `COc1ccccc1[N-]C(C1=C([O-])c2ccccc2C1=O)c1ccccc1.COc1ccccc1[N-]C(C1=C([O-])c2ccccc2C1=O)c1ccccc1.[Cu+2]` (stereo unspecified)?
GI50 (786-0 renal): 7.76 µM; TGI (786-0 renal): > 100 µM; GI50 (A498 renal): 14.7 µM; TGI (A498 renal): 53.7 µM; GI50 (A549 NSCLC): 4.63 µM; TGI (A549 NSCLC): 52.9 µM; GI50 (ACHN renal): 10.9 µM; TGI (ACHN renal): 74.7 µM; GI50 (CAKI-1 renal): 12.7 µM; TGI (CAKI-1 renal): 54.5 µM; GI50 (CCRF-CEM leukemia): 3.49 µM; TGI (CCRF-CEM leukemia): > 100 µM; GI50 (COLO 205 colon): 3.95 µM; TGI (COLO 205 colon): 30 µM; GI50 (DLD-1 colon): 3.7 µM; TGI (DLD-1 colon): > 100 µM; GI50 (DMS 114 small cell lung): 3.01 µM; TGI (DMS 114 small cell lung): > 100 µM; GI50 (DMS 273 small cell lung): 4.59 µM; TGI (DMS 273 small cell lung): > 100 µM; GI50 (HCT-116 colon): 3.26 µM; TGI (HCT-116 colon): > 100 µM; GI50 (HCT-15 colon): 6.51 µM; TGI (HCT-15 colon): > 100 µM; GI50 (HL-60(TB) leukemia): 3.25 µM; TGI (HL-60(TB) leukemia): > 100 µM; GI50 (HOP-18 NSCLC): 18.3 µM; TGI (HOP-18 NSCLC): 95.1 µM; GI50 (HOP-62 NSCLC): 25.2 µM; TGI (HOP-62 NSCLC): 68.6 µM; GI50 (HOP-92 NSCLC): 9.86 µM; TGI (HOP-92 NSCLC): 69.7 µM; GI50 (HT29 colon): 18.2 µM; TGI (HT29 colon): > 100 µM; GI50 (IGROV1 ovarian): 9.3 µM; TGI (IGROV1 ovarian): > 100 µM; GI50 (K-562 leukemia): 3.18 µM; TGI (K-562 leukemia): > 100 µM; GI50 (KM12 colon): 5.76 µM; TGI (KM12 colon): 43.1 µM; GI50 (KM20L2 colon): 25.4 µM; TGI (KM20L2 colon): > 100 µM; GI50 (LOX IMVI melanoma): 8.64 µM; TGI (LOX IMVI melanoma): 95.2 µM; GI50 (LXFL 529 NSCLC): 22.4 µM; TGI (LXFL 529 NSCLC): > 100 µM; GI50 (M14 melanoma): 4.58 µM; TGI (M14 melanoma): > 100 µM; GI50 (M19-MEL melanoma): 41.7 µM; TGI (M19-MEL melanoma): > 100 µM; GI50 (MALME-3M melanoma): 6.85 µM; TGI (MALME-3M melanoma): > 100 µM; GI50 (MOLT-4 leukemia): 5.98 µM; TGI (MOLT-4 leukemia): > 100 µM; GI50 (NCI-H23 lung): 7.17 µM; TGI (NCI-H23 lung): 61.2 µM; GI50 (NCI-H460 lung): 6.76 µM; TGI (NCI-H460 lung): > 100 µM; GI50 (OVCAR-3 ovarian): 13.8 µM; TGI (OVCAR-3 ovarian): 54.2 µM; GI50 (OVCAR-8 ovarian): 7.52 µM; TGI (OVCAR-8 ovarian): > 100 µM; GI50 (RPMI-8226 leukemia): 3.9 µM; TGI (RPMI-8226 leukemia): > 100 µM; GI50 (RXF-631 renal): 12.7 µM; TGI (RXF-631 renal): > 100 µM; GI50 (SF-268 CNS): 5.3 µM; TGI (SF-268 CNS): > 100 µM; GI50 (SF-295 CNS): 5.33 µM; TGI (SF-295 CNS): > 100 µM; GI50 (SF-539 CNS): 3.82 µM; TGI (SF-539 CNS): 15.1 µM; GI50 (SK-MEL-28 melanoma): 16.2 µM; TGI (SK-MEL-28 melanoma): > 100 µM; GI50 (SK-MEL-5 melanoma): 5.39 µM; TGI (SK-MEL-5 melanoma): 72.7 µM; GI50 (SK-OV-3 ovarian): 2090 nM; TGI (SK-OV-3 ovarian): 6.57 µM; GI50 (SN12C renal): 9.37 µM; TGI (SN12C renal): > 100 µM; GI50 (SNB-19 CNS): 23.8 µM; TGI (SNB-19 CNS): 81.8 µM; GI50 (SNB-75 CNS): 11.9 µM; TGI (SNB-75 CNS): 37.1 µM; GI50 (SNB-78 CNS): 8.19 µM; TGI (SNB-78 CNS): > 100 µM; GI50 (SR leukemia): 8.58 µM; TGI (SR leukemia): > 100 µM; GI50 (SW-620 colon): 6.08 µM; TGI (SW-620 colon): > 100 µM; GI50 (TK-10 renal): 31.7 µM; TGI (TK-10 renal): 68.3 µM; GI50 (U251 CNS): 2880 nM; TGI (U251 CNS): 8.33 µM; GI50 (UACC-257 melanoma): 12.9 µM; TGI (UACC-257 melanoma): > 100 µM; GI50 (UACC-62 melanoma): 6.66 µM; TGI (UACC-62 melanoma): 42.4 µM; GI50 (UO-31 renal): 12 µM; TGI (UO-31 renal): 75.2 µM
